Test [1] concerns the target T1, Serotonin 3 (5-HT3) receptor (Rattus norvegicus, UniProt P35563+Q9JJ16).
T1 sequence (P35563 whole entry): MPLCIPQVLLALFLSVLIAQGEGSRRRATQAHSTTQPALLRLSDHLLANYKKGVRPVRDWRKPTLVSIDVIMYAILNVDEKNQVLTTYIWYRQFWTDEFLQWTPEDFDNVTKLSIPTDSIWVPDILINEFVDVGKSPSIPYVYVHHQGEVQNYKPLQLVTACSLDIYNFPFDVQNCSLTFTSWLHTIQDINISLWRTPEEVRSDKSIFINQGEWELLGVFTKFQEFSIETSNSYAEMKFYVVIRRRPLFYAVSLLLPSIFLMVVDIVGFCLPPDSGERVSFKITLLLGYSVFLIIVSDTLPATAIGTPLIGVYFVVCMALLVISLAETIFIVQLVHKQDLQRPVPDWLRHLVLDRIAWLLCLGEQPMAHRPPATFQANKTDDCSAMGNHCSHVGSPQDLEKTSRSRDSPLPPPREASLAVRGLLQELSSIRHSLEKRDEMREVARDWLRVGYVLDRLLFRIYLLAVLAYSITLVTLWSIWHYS
T1 sequence (Q9JJ16 whole entry): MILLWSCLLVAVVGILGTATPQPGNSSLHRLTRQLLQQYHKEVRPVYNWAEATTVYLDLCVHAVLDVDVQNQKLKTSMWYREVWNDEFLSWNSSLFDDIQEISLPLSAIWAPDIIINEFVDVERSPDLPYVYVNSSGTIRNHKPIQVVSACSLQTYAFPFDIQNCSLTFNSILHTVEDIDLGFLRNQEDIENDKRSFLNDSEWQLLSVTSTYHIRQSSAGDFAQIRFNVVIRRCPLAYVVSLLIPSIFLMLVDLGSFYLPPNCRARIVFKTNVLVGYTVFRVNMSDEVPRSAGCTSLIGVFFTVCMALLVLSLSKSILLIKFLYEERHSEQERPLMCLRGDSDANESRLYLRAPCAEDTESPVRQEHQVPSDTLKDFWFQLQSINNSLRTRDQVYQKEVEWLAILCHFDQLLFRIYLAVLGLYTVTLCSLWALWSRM
In words: Binding affinity at 5-hydroxytryptamine 3 receptor in rat entorhinal cortex by [3H]BRL-43694 displacement. Type of test: tissue-based.

The target in test [2] is Serotonin 3 (5-HT3) receptor (Rattus norvegicus) (UniProt P35563+Q9JJ16). In words: Compound was tested as a 5-hydroxytryptamine 3 receptor antagonist in the rat by assessment of the inhibition of the Bezold-Jarisch effect, when administered intravenously. Type of test: functional.

One may read the Ki as a dissociation constant, usually derived from enzyme kinetics or from competition with a known ligand. A lower Ki goes with tighter binding. `O=C(N[C@@H]1CN2CCC1CC2)c1cccc2ccccc12` gave a Ki in test [1] of 32 nM. On the same count and under the same terms, with `O=C1c2ccc3ccccc3c2C(=O)N1[C@@H]1CN2CCC1CC2` the figure was 119 nM; with `CCCOc1ccccc1C(=O)N[C@@H]1CN2CCC1CC2`, 11.2 nM. Turning to `O=C1c2ccc3ccccc3c2C(=O)N1[C@H]1CN2CCC1CC2`, the ID50 in test [2] turned out to be 18.6 mg/kg. In test [1], this compound displayed a Ki of 6 nM. Compound `COc1ccccc1C(=O)N[C@H]1CN2CCC1CC2` returned a Ki in test [1] of 409 nM. The same measure, in the same setting: for `O=C(N[C@@H]1CN2CCC1CC2)c1ccccc1` the value was 147 nM; for `COc1ccc2ccccc2c1C(=O)NC1CN2CCC1CC2` (centres undefined), 342 nM.

As for `CCOc1ccccc1C(=O)N[C@H]1CN2CCC1CC2`, affinity in test [1] was put at a Ki of 100 nM. Same read-out and setting: for `O=C(N[C@H]1CN2CCC1CC2)c1ccccc1` the value was 1890 nM. As to `COc1ccccc1C(=O)N[C@@H]1CN2CCC1CC2`, in test [1], the Ki turned out to be 23.4 nM. Take `CCOc1ccccc1C(=O)N[C@@H]1CN2CCC1CC2`: the inhibition constant Ki in test [1] amounted to 18.9 nM. On the same count and under the same terms, for `CCCOc1ccccc1C(=O)N[C@H]1CN2CCC1CC2` the value was 71.6 nM.

For the compound `Nc1ccc2cccc3c2c1C(=O)N(C1CN2CCC1CC2)C3=O` (centres undefined), the Ki in test [1] was determined as 0.15 nM.

These data come from ChEMBL document CHEMBL1126524, “Derivatives of quinuclidine as 5-HT3 receptor antagonists: influence of an additional carbonyl group on the recognition of chirality by the receptor” (Bioorg Med Chem Lett, 1993).
